In patent US4367339A, “Substituted N-nitroaniline compounds and inorganic and organic salts thereof useful for enhancing auxiliary branching, canopy flowering and crop yield of plant and as lodging inhibitors therefor” (priority 1980, dated 1983):

Test system: barley (Hordeum vulgare, var. Georgie)
Assay: Antilodging effects on barley
Type: in vivo
Set-up: key to Tiller formation / Stem stiffness: 5 = no increase over controls, 3 = moderate significant increase
Settings: for Stem stiffness / Tiller formation: control 5; for Weight Dry: control 5.2; for Weight Fresh: control 49.1; for Height: control 53.1; for Phytotoxicity: three weeks after spraying
Method: In this experiment the procedure of Example 7 is repeated excepting that the crop used was barley (Hordeum vulgare, var. Georgie; European lodging prone variety). The plants are treated at the 3-4 leaf stage. Plants are watered prior to treatment and then sprayed to provide the kg/ha rate of test compound desired. After spraying the plants are placed on greenhouse benches and watered and fertilized in accordance with normal greenhouse procedures.
Three weeks after spraying the plants are measured and harvested. All treatments are replicated six times and companions are made against untreated controls.
The following rating system is used:
5=No increase over controls
3=Moderate, significant increase over controls.

Row | Compound | Stem stiffness (rate 0.25 kg/ha) | Tiller formation (rate 0.25 kg/ha) | Weight Dry (rate 0.25 kg/ha) | Weight Fresh (rate 0.25 kg/ha) | Height (rate 0.25 kg/ha) | Phytotoxicity (rate 0.25 kg/ha) | Stem stiffness (rate 0.5 kg/ha) | Tiller formation (rate 0.5 kg/ha) | Weight Dry (rate 0.5 kg/ha) | Weight Fresh (rate 0.5 kg/ha) | Height (rate 0.5 kg/ha) | Phytotoxicity (rate 0.5 kg/ha) | Stem stiffness (rate 1.0 kg/ha) | Tiller formation (rate 1.0 kg/ha) | Weight Dry (rate 1.0 kg/ha) | Weight Fresh (rate 1.0 kg/ha) | Height (rate 1.0 kg/ha) | Phytotoxicity (rate 1.0 kg/ha)
1 | Brn1c(-c2ccccc2)cc(-c2ccccc2)[n+]1Br.O=[N+]([O-])[N-]c1c(Br)cccc1Br [1,2-Dibromo-3,5-diphenylpyrazolium salt with 2,6-dibromo-N--aci-nitroaniline] | 4 | 5 (No increase over controls) | 6.9 g | 59.2 g | 58.2 cm | 5 (No increase over controls) | 4 | 5 (No increase over controls) | 6.7 g | 60.7 g | 53.3 cm | 5 (No increase over controls) | 3 (Moderate, significant increase over controls.) | 3 (Moderate, significant increase over controls.) | 5.9 g | 60.4 g | 52.3 cm | 5 (No increase over controls)
2 | Cn1c(-c2ccccc2)cc(-c2ccccc2)[n+]1C.O=[N+]([O-])[N-]c1cccc(Cl)c1Cl [1,2-Dimethyl-3,5-diphenylpyrazolium salt with 2,3-dichloro-N--aci-nitroaniline] | 5 (No increase over controls) | 5 (No increase over controls) | – | 51.2 g | 56.3 cm | 5 (No increase over controls) | 5 (No increase over controls) | 5 (No increase over controls) | – | 52.6 g | 54.7 cm | 5 (No increase over controls) | 5 (No increase over controls) | 5 (No increase over controls) | 6.0 g | 57.3 g | 55.5 cm | 5 (No increase over controls)
3 | Cn1c(-c2ccccc2)cc(-c2ccccc2)[n+]1C.O=[N+]([O-])[N-]c1ccccc1Br [1,2-Dimethyl-3,5-diphenylpyrazolium salt with 2-Bromo-N--aci-nitroaniline] | 4 | 4 | – | 51.0 g | 52.5 cm | 5 (No increase over controls) | 5 (No increase over controls) | 5 (No increase over controls) | – | 53.5 g | 50.6 cm | 5 (No increase over controls) | 5 (No increase over controls) | 5 (No increase over controls) | – | 47.4 g | 50.0 cm | 5 (No increase over controls)
4 | O=[N+]([O-])Nc1ccc(Br)cc1Br [2,4-Dibromo-N--nitroaniline] | 3 (Moderate, significant increase over controls.) | 4 | 7.8 g | 63.5 g | 54.7 cm | 5 (No increase over controls) | 5 (No increase over controls) | 5 (No increase over controls) | 6.7 g | 56.3 g | 56.0 cm | 5 (No increase over controls) | 5 (No increase over controls) | 5 (No increase over controls) | – | 46.4 g | 53.3 cm | 5 (No increase over controls)
5 | O=[N+]([O-])N(F)c1c(Br)cccc1Br [2,6-Dibromo-N--fluoro-N--nitroaniline] | 4 | 4 | 6.0 g | 57.8 g | 52.0 cm | 5 (No increase over controls) | 5 (No increase over controls) | 5 (No increase over controls) | – | 52.6 g | 51.0 cm | 5 (No increase over controls) | 5 (No increase over controls) | 4 | – | 49.2 g | 45.2 cm | 5 (No increase over controls)
